Test results as given in US20130096067A1, “DROSOPHILA TUMOR STEM CELL MODEL AND USES THEREOF” (priority 2011, published 2013).
Peptide text beside a SMILES is read from it. * marks the point of attachment. CH2Cl = ClC*

Test system: Raf-1^gof intestinal tumors
Settings: for Log2 (fold) (luciferase activity, log2 of the fold difference relative to DMSO controls) / Fold (luciferase activity, fold difference relative to DMSO controls): screen of 480 ICCB compounds in vials, compounds fed to flies with one-day old Raf-1^gof tumors, esg-Gal4 luciferase; for Log2 (fold) (luciferase activity, log2 of the fold difference relative to DMSO controls) / Fold (luciferase activity, fold difference relative to DMSO controls) / Log2 (fold) of luciferase activity relative to DMSO controls / Fold (luciferase activity relative to DMSO controls): assessed three days later; for Fold (luciferase activity, fold difference relative to DMSO controls) / Fold (luciferase activity relative to DMSO controls): averaged from multiple wells; for Log2 (fold) of luciferase activity relative to DMSO controls / Fold (luciferase activity relative to DMSO controls): ICCB compounds fed in vials to flies with one-day old Raf-1^gof tumors; for Fold: Table 3 summary of hits, Screen ICCB, luciferase relative to DMSO, fed three consecutive days in vials
Wherever Fold (luciferase activity relative to DMSO controls) is given: test concentration or dose not given here.
Wherever Fold (luciferase activity, fold difference relative to DMSO controls) is given: test concentration or dose not given here.
Wherever Log2 (fold) (luciferase activity, log2 of the fold difference relative to DMSO controls) is given: test concentration or dose not given here.
Wherever Log2 (fold) of luciferase activity relative to DMSO controls is given: test concentration or dose not given here.

Compound | Log2 (fold) (luciferase activity, log2 of the fold difference relative to DMSO controls) | Fold (luciferase activity, fold difference relative to DMSO controls) | Log2 (fold) of luciferase activity relative to DMSO controls | Fold (luciferase activity relative to DMSO controls) | Fold
CC(N/C(=N\C#N)Nc1ccncc1)C(C)(C)C (stereo not shown) | −0.591 | 0.664 |  |  | 
CCCCC/C=C\C/C=C\CCCCCCCC(=O)O [LINOLEIC ACID] |  |  | 0.024 | 1.017 fold | 
CCCCC/C=C\C/C=C\C/C=C\C=C\[C@H](CCCC(=O)O)OO [5(S)-HPETE] | −0.524 | 0.696 |  |  | 
COc1c(C=O)c(O)cc2c1C(=O)c1ccccc1C2=O [damnacanthal] | −0.482 | 0.716 |  |  | 
Oc1c2ccccc2c2c3c(cccc13)N=N2 [SP-600125] |  |  | −0.100 | 0.933 fold | 
CCCCCCCCCCC1=C(C)C(=O)C(OC)=C(OC)C1=O [Decylubiquinone] | −0.442 | 0.736 |  |  | 
NCCc1c[nH]c2ccc(O)cc12 [serotonin] |  |  | 0.266 | 1.203 fold | 
METHOXY VERAPAMIL |  |  | −0.069 | 0.954 fold | 
Clc1ccc2ncnc(NCc3ccc4c(c3)OCO4)c2c1 [MBCQ] |  |  | 0.195 | 1.145 fold | 
CC(=O)OCOC(c1ccc2ccccc2c1)P(=O)(OCOC(C)=O)OCOC(C)=O (stereo not shown) [HNMPA-(AM)3] |  |  | −0.049 | 0.966 fold | 
O=C(O)c1ccccc1Nc1cccc(C(F)(F)F)c1 [FLUFENAMIC ACID] | −0.214 | 0.862 |  |  | 
C=C(C)[C@@H]1CC[C@]2(C(=O)O)CC[C@]3(C)[C@H](CC[C@@H]4[C@@]5(C)CC[C@H](O)C(C)(C)[C@@H]5CC[C@]43C)[C@@H]12 [Betulinic acid] | −0.708 | 0.612 |  |  | 
CCCCC/C=C\C/C=C\C/C=C\CCCCCCC(=O)O [DIHOMO-GAMMA-LINOLENIC ACID] |  |  | 0.323 | 1.251 fold | 
C[C@@H]1C[C@@H]([C@H](O)CC2CC(=O)NC(=O)C2)C(=O)[C@@H](C)C1 [cycloheximide, reference compound] | −1.568 | 0.337 |  |  | 0.337 fold
CCCCC[C@H](O)/C=C/C=C\CCCCCCCC(=O)O [13(S)-HODE] |  |  | −0.141 | 0.907 fold | 
CCCCC/C=C\C/C=C\C/C=C\C/C=C\CCCCCC(=O)O [ADRENIC ACID (22:4, n-6)] | −0.364 | 0.777 |  |  | 
CCCCNc1cc(C(=O)O)cc(S(N)(=O)=O)c1Oc1ccccc1 [bumetanide] |  |  | −0.048 | 0.967 fold | 
CCCCC[C@H](O)CC(=O)CCc1ccc(O)c(OC)c1 [GINGEROL] | −0.273 | 0.827 |  |  | 
CCN(CC)CCCCCCCCOC(=O)c1cc(OC)c(OC)c(OC)c1 [TMB-8] | −0.325 | 0.798 |  |  | 
CCCCCC=CCC=CCC=CC=CC(=O)CCCC(=O)O [5-KETOEICOSATETRAENOIC ACID] | −0.316 | 0.803 |  |  | 
O=C1C(SCCO)=C(SCCO)C(=O)c2ccccc21 [NSC-95397] | −0.495 | 0.709 |  |  | 
CC(=O)N[C@@H](CSC/C=C(\C)CC/C=C(\C)CCC=C(C)C)C(=O)O | −0.664 | 0.631 |  |  | 
CCCCCCOC(=O)[C@]1(O)C[C@@H]2O[C@@]1(C)n1c3ccccc3c3c4c(c5c6ccccc6n2c5c31)C(=O)NC4 [KT-5720] | −0.246 | 0.843 |  |  | 

Compound | Log2 (fold) (luciferase activity, log2 of the fold difference relative to DMSO controls) | Fold (luciferase activity, fold difference relative to DMSO controls) | Log2 (fold) of luciferase activity relative to DMSO controls | Fold (luciferase activity relative to DMSO controls) | Fold
CCCCCCCCCCCCCC(=O)O[C@@H]1[C@@H](C)[C@@]2(O)[C@@H](C=C(CO)C[C@]3(O)C(=O)C(C)=C[C@@H]23)[C@@H]2C(C)(C)[C@]12OC(C)=O [phorbol 12 myristate 13 acetate] | −0.323 | 0.799 |  |  | 
Nc1ncnc2c1nc(Br)n2C1O[C@H]2COP(=O)(O)O[C@@H]2[C@@H]1O (stereo partly shown) [Bromo-cAMP [8-Bromo-cAMP]] |  |  | −0.045 | 0.969 fold | 
LY-294002 |  |  | −0.204 | 0.868 fold | 
CCCCCCCCCCCCCCCCCCOCC(COP(=O)([O-])OCC[N+](C)(C)C)OC (stereo not shown) [1-OCTADECYL-2-METHYLGLYCERO-3 PC] | −0.538 | 0.689 |  |  | 
CC(C)[C@@H](O)CC[C@@H](C)[C@H]1CC[C@H]2[C@@H]3CC=C4C[C@@H](O)CC[C@]4(C)[C@H]3CC[C@]12C [24(S)-hydroxycholesterol] | −0.244 | 0.844 |  |  | 
Nc1ccc2c3c(cccc13)C(=O)NC2=O | −0.433 | 0.741 |  |  | 
CC(=O)OCOC(c1cc([N+](=O)[O-])ccc1Oc1ccc(Br)cc1)P(=O)(OCOC(C)=O)OCOC(C)=O (stereo not shown) [RWJ-60475-(AM)3] | −0.217 | 0.861 |  |  | 
CNC(=O)[C@H]1O[C@@H](n2cnc3c(NCc4cccc(I)c4)ncnc32)[C@H](O)[C@@H]1O [IB-MECA] |  |  | −0.083 | 0.944 fold | 
O[C@H]1[C@H]2[C@H](O)CCCN2C[C@H]1O [swainsonine] | −0.233 | 0.851 |  |  | 
CC(=O)N[C@@H](CC(C)C)C(=O)N[C@@H](CC(C)C)C(=O)N[C@H](C=O)CCCNC(=N)N [Leupeptin] |  |  | −0.038 | 0.974 fold | 
N#C/C(=C\c1ccc(O)c(O)c1)C(N)=S [AG213 (Tyrphostin 47)] | −0.625 | 0.648 |  |  | 
CCCCCCCCCCCCCCCCOCC(CO)OC(C)=O (stereo not shown) [1-HEXADECYL-2-O-ACETYL-GLYCEROL] |  |  | 0.518 | 1.432 fold | 
Br.NC1CCc2cc(O)c(O)cc2C1 (stereo not shown) [6,7-ADTN HBr] | −0.383 | 0.767 |  |  | 
N#CC(C#N)=NNc1ccc(OC(F)(F)F)cc1 [FCCP] | −0.313 | 0.805 |  |  | 
O=Cc1c2[nH]c3ccccc3c2cc2[nH]c3ccccc3c12 [6-FORMYLINDOLO [3,2-B] CARBAZOLE] | −0.273 | 0.828 |  |  | 
Oc1cc(O)cc(/C=C/c2ccc(O)c(O)c2)c1 [Piceatannol, reference compound] | −1.020 | 0.493 |  |  | 0.493 fold
CCCCC[C@H](O)/C=C/[C@H]1[C@H](O)CC(=O)[C@@H]1C/C=C\CCCC(=O)O [PROSTAGLANDIN E2] | −0.223 | 0.857 |  |  | 
CCNC(=O)[C@H]1O[C@@H](n2cnc3c(N)ncnc32)[C@H](O)[C@@H]1O [5′-N-Ethylcarboxamidoadenosine (NECA)] |  |  | −0.024 | 0.983 fold | 
LYSOPHOSPHATIDIC ACID | −0.509 | 0.703 |  |  | 
Nc1nc2c(nc(Br)n2[C@@H]2O[C@@H]3COP(=O)(O)O[C@H]3[C@H]2O)c(=O)[nH]1 [Bromo-cGMP [8-Bromo-cGMP]] |  |  | 0.021 | 1.015 fold | 
CCCCC/C=C\C/C=C\CCCCCCCC(N)=O [LINOLEAMIDE] |  |  | −0.027 | 0.981 fold | 
C[C@H](N)C(=O)N[C@@H](C)C(=O)N[C@@H](Cc1ccccc1)C(=O)CCl [Ala-Ala-Phe-CMK] (H-Ala-Ala-Phe-CH2Cl) | −0.738 | 0.599 |  |  | 
CCCCC/C=C\C\C=C/C=C/C=C/[C@@H](SC[C@H](NC(=O)CC[C@H](N)C(=O)O)C(=O)NCC(=O)O)[C@@H](O)CCCC(=O)O [LEUKOTRIENE C4] |  |  | 0.114 | 1.082 fold | 
